Experimental data from article PMC6410164, “Isolation and Structure-Activity Relationship of Subergorgic Acid and Synthesis of Its Derivatives as Antifouling Agent” (Marine Drugs, 2019).
Values after ≈ are worked out from the molar mass of the structure shown. Where two headings read alike, the source gives them in different places.

Assays:
B. amphitrite [1] = experiment: Larval settlement (antifouling) assay with cyprids of the barnacle B. amphitrite; format: in vivo, Balanus amphitrite; conditions: Amphibalanus amphitrite, 48 h, read-out: EC50 (μg/mL), inhibition of settlement of B. amphitrite
Experimental: The antifouling activity was examined using cyprids of the barnacle B. amphitrite Darwin according to the method reported previously. Briefly, adults of B. amphitrite, collected from the intertidal zone in Hong Kong, were exposed to air for more than 6 h, and were then placed in a container filled with 0.22 µm filtered seawater (FSW) to release nauplii. The collected nauplii were raised to cyprid stage using the method described by Thiyagarajan et al.. Fresh cyprids were used in the test. Larval settlement assays were examined using 24-well polystyrene plates. The tested samples were first dissolved with small amount of dimethyl sulfoxide (DMSO) and then diluted with FSW to achieve final concentrations at 25.0, 12.5, 6.25, 3.13, 1.57, 0.78, 0.39, 0.19, 0.1, and 0.05 µg/mL. About 15−20 competent larvae were added to each well containing 1 mL of test solution in triplicate, and wells containing only FSW, DMSO, and larvae served as a control. The plates were incubated at 25 °C for 48 h. The effects of the test samples against biofouling were determined by examining the plates under a microscope to count settled, unsettled, and swimming larvae, and where appropriate, potential toxic effects were recorded. The number of settled larvae was expressed as a percentage of the total number of larvae per well. Three replicates of each treatment were performed. A concentration-response curve was then made and a trend line was constructed for each compound. EC50 was calculated as the concentration where 50% of the larval individual was inhibited to settle as compared to the control while LC50 was calculated as the concentration where 50% of the larval population was dead. […] For the purposes of this study, adults of the barnacle B. amphitrite were scraped off from the concrete posts at a pier of Pak Sha Wan, Kowloon, Hong Kong (22°21′45″N, 114°15′35″E), where only limited quantity of B. amphitrite could be collected during the period of our experiment because of the relatively hot weather and artificial disturbing of nearby construction work.

[2] = Toxicity toward larvae in the settlement assay (LC50); conditions: Balanus amphitrite (barnacle), cyprid larvae, in vivo, other: immersion of larvae in test solution, B. amphitrite larvae, highest concentration tested 25 μg/mL
Experimental: The antifouling activity was examined using cyprids of the barnacle B. amphitrite Darwin according to the method reported previously. Briefly, adults of B. amphitrite, collected from the intertidal zone in Hong Kong, were exposed to air for more than 6 h, and were then placed in a container filled with 0.22 µm filtered seawater (FSW) to release nauplii. The collected nauplii were raised to cyprid stage using the method described by Thiyagarajan et al.. Fresh cyprids were used in the test. Larval settlement assays were examined using 24-well polystyrene plates. […] About 15−20 competent larvae were added to each well containing 1 mL of test solution in triplicate, and wells containing only FSW, DMSO, and larvae served as a control. The plates were incubated at 25 °C for 48 h. The effects of the test samples against biofouling were determined by examining the plates under a microscope to count settled, unsettled, and swimming larvae, and where appropriate, potential toxic effects were recorded. The number of settled larvae was expressed as a percentage of the total number of larvae per well. Three replicates of each treatment were performed. A concentration-response curve was then made and a trend line was constructed for each compound.

barnacle larvae = conditions: cited from earlier work
B. amphitrite [3] = tested on: B. amphitrite; parameters: method as in PMID 18075899; conditions: reported by Qi et al. ref 21; cited from earlier work
B. amphitrite [4] = conditions: reported by Qi et al. ref 21; cited from earlier work
[5] = tested on: naupliar larvae of several barnacles; parameters: method as in PMID 12031437; conditions: cited from earlier work
[6] = cyprids, 24-well plates, 25 °C, average of triplicate ± SD, highest concentration 25 μg/mL

SMILES	EC50 (B. amphitrite [1]; [6])	LC50 at 48 h [2]	other results
COC(=O)C1=CC2(C)CCC3C(C)CC(O)C32C1C (stereo not drawn) [Compound 2]	10 ± 0.13 µg/mL (≈ 37.9 µM)	> 25 µg/mL	–
COC(=O)C1=CC2(C)CCC3C(C)CC(=O)C32C1C (stereo not drawn) [Compound 1]	3.16 ± 0.18 µg/mL (≈ 12 µM)	> 25 µg/mL	–
OCc1cc(O)cc(Cl)c1O [3-chloro-2,5-dihydroxybenzylalcohol]	–	–	EC50, settlement inhibition against barnacle larvae (barnacle larvae): 3.19 to 3.81 µg/mL
CC1CC(=O)C23C(C)C(C(=O)O)=CC2(C)CCC13 (stereo not drawn) [SA, subergorgic acid]	–	> 25 µg/mL	EC50 (B. amphitrite [1]): 1.25 ± 0.14 µg/mL (≈ 5.03 µM); EC50, settlement of B. amphitrite (B. amphitrite [3]): 1.2 µg/mL; LC50 (B. amphitrite [4]): > 200 µg/mL
CC1CC(=O)C23C1CCC2(C)C1OC1(C(=O)O)C3C (stereo not drawn) [Compound 4]	> 25 µg/mL	> 25 µg/mL	–
O=C1O[C@@H](Cc2ccccc2)C(Cc2ccccc2)=C1Cc1ccccc1 [Maculalactone A]	–	–	EC50 against naupliar larvae of several barnacles [5]: 1.1 to 5.2 µg/mL
Oc1c(Br)cc(Br)cc1Cc1ccc(Br)cc1Br [2,4-dibromo-6-(2,4-dibromobenzyl)phenol]	–	–	EC50 (barnacle larvae; read-out: EC50, settlement inhibition against barnacle larvae): 1260 nM
CC1CC(O)C23C(C)C(C(=O)O)=CC2(C)CCC13 (stereo not drawn) [Compound 3]	> 25 µg/mL	> 25 µg/mL	–
